# ChEMBL document CHEMBL3885861, “Open TG-GATES”
# Organism: Rattus norvegicus
# Experiment: Open TG-GATES - Regimen: Single
# Format: toxicity, organism-based, Sprague-Dawley
# Parameters: regimen Single, gender Male, age 6 weeks
# Conditions: in vivo, po, 15 mg/kg, route gavage, dose level Low; for APTT / Bas / Eos / Fbg / Hb / Ht / Lym / MCHC / MCV / Mono / Neu / PT / Plat / RBC / Ret / WBC: tissue Blood; for KIDNEY_L / KIDNEY_R / KIDNEY_TOTAL: tissue Kidney; for LIVER: tissue Liver; for ALP / ALT / AST / BUN / CRE / Ca / Cl / DBIL / GLC / IP / K / LDH / Na / PL / RALB / TBIL / TC / TG / TP / gamma-GTP: tissue Plasma
compound,measurement,setting,value
C1CCC(C(CC2CCCCN2)C2CCCCC2)CC1 (centres undefined) [PERHEXILINE],TERMINAL_BW,3 h,217 g
same,APTT,3 h,20.2 s
same,Bas,3 h,0%
same,Eos,3 h,0.6%
same,Fbg,3 h,331 mg/dL
same,Hb,3 h,13.3 g/dL
same,Ht,3 h,39.6%
same,Lym,3 h,79.8%
same,MCHC,3 h,33.5%
same,MCV,3 h,63.8 fL
same,Mono,3 h,1.8%
same,Neu,3 h,16.8%
same,PT,3 h,15.6 s
same,Plat,3 h,121.9 x10_4/uL
same,RBC,3 h,620.8 x10_4/ul
same,Ret,3 h,7.8%
same,WBC,3 h,62.3 x10_2/uL
same,KIDNEY_L,3 h,1 g
same,KIDNEY_R,3 h,1 g
same,KIDNEY_TOTAL,3 h,1.9 g
same,LIVER,3 h,10.1 g
same,ALP,3 h,1601.6 IU/L
same,ALT,3 h,47 IU/L
same,AST,3 h,74 IU/L
same,BUN,3 h,13 mg/dL
same,CRE,3 h,0.1 mg/dL
same,Ca,3 h,11 mg/dL
same,Cl,3 h,105.6 meq/L
same,DBIL,3 h,0.002 mg/dL
same,GLC,3 h,181.2 mg/dL
same,IP,3 h,8.6 mg/dL
same,K,3 h,4 meq/L
same,LDH,3 h,183.8 IU/L
same,Na,3 h,140.8 meq/L
same,PL,3 h,149.4 mg/dL
same,RALB,3 h,3.2 g/dL
same,TBIL,3 h,0.022 mg/dL
same,TC,3 h,81.2 mg/dL
same,TG,3 h,90.2 mg/dL
same,TP,3 h,5.7 g/dL
same,gamma-GTP,3 h,0.6 IU/L
same,TERMINAL_BW,6 h,212 g
same,APTT,6 h,20.7 s
same,Bas,6 h,0%
same,Eos,6 h,0.8%
same,Fbg,6 h,320.2 mg/dL
same,Hb,6 h,13.1 g/dL
same,Ht,6 h,39.6%
same,Lym,6 h,79.6%
same,MCHC,6 h,33.1%
same,MCV,6 h,64.4 fL
same,Mono,6 h,2%
same,Neu,6 h,16.4%
same,PT,6 h,15.6 s
same,Plat,6 h,134.6 x10_4/uL
same,RBC,6 h,615.4 x10_4/ul
same,Ret,6 h,7.9%
same,WBC,6 h,77.4 x10_2/uL
same,KIDNEY_L,6 h,1 g
same,KIDNEY_R,6 h,1 g
same,KIDNEY_TOTAL,6 h,2 g
same,LIVER,6 h,9.5 g
same,ALP,6 h,1590.2 IU/L
same,ALT,6 h,39 IU/L
same,AST,6 h,70 IU/L
same,BUN,6 h,10.6 mg/dL
same,CRE,6 h,0.1 mg/dL
same,Ca,6 h,10.9 mg/dL
same,Cl,6 h,105.8 meq/L
same,DBIL,6 h,0 mg/dL
same,GLC,6 h,170.4 mg/dL
same,IP,6 h,9.5 mg/dL
same,K,6 h,4.4 meq/L
same,LDH,6 h,209.6 IU/L
same,Na,6 h,139.2 meq/L
same,PL,6 h,134.6 mg/dL
same,RALB,6 h,3.1 g/dL
same,TBIL,6 h,0.018 mg/dL
same,TC,6 h,77.2 mg/dL
same,TG,6 h,73.6 mg/dL
same,TP,6 h,5.6 g/dL
same,gamma-GTP,6 h,1 IU/L
same,TERMINAL_BW,9 h,204.6 g
same,APTT,9 h,21.4 s
same,Bas,9 h,0%
same,Eos,9 h,0.8%
same,Fbg,9 h,303.4 mg/dL
same,Hb,9 h,12.8 g/dL
same,Ht,9 h,38.4%
same,Lym,9 h,76.2%
same,MCHC,9 h,33.5%
same,MCV,9 h,62.1 fL
same,Mono,9 h,1.6%
same,Neu,9 h,21%
same,PT,9 h,15.5 s
same,Plat,9 h,127.1 x10_4/uL
same,RBC,9 h,619.8 x10_4/ul
same,Ret,9 h,7%
same,WBC,9 h,67.3 x10_2/uL
same,KIDNEY_L,9 h,1 g
same,KIDNEY_R,9 h,1 g
same,KIDNEY_TOTAL,9 h,2 g
same,LIVER,9 h,8.9 g
same,ALP,9 h,1312.6 IU/L
same,ALT,9 h,38 IU/L
same,AST,9 h,65.8 IU/L
same,BUN,9 h,10.2 mg/dL
same,CRE,9 h,0.1 mg/dL
same,Ca,9 h,11 mg/dL
same,Cl,9 h,105.6 meq/L
same,DBIL,9 h,0.004 mg/dL
same,GLC,9 h,172 mg/dL
same,IP,9 h,9.4 mg/dL
same,K,9 h,3.9 meq/L
same,LDH,9 h,186.2 IU/L
same,Na,9 h,139.6 meq/L
same,PL,9 h,124.4 mg/dL
same,RALB,9 h,3.1 g/dL
same,TBIL,9 h,0.014 mg/dL
same,TC,9 h,68.8 mg/dL
same,TG,9 h,49.2 mg/dL
same,TP,9 h,5.7 g/dL
same,gamma-GTP,9 h,1 IU/L
same,TERMINAL_BW,24 h,216.9 g
same,APTT,24 h,20.4 s
same,Bas,24 h,0%
same,Eos,24 h,0.8%
same,Fbg,24 h,319.6 mg/dL
same,Hb,24 h,13.3 g/dL
same,Ht,24 h,39.1%
same,Lym,24 h,77.8%
same,MCHC,24 h,34.1%
same,MCV,24 h,63.5 fL
same,Mono,24 h,1.8%
same,Neu,24 h,18.6%
same,PT,24 h,15.8 s
same,Plat,24 h,130.2 x10_4/uL
same,RBC,24 h,616.8 x10_4/ul
same,Ret,24 h,6.2%
same,WBC,24 h,108.7 x10_2/uL
same,KIDNEY_L,24 h,1 g
same,KIDNEY_R,24 h,1 g
same,KIDNEY_TOTAL,24 h,1.9 g
same,LIVER,24 h,10 g
same,ALP,24 h,1593 IU/L
same,ALT,24 h,47 IU/L
same,AST,24 h,70.6 IU/L
same,BUN,24 h,17 mg/dL
same,CRE,24 h,0.1 mg/dL
same,Ca,24 h,10.8 mg/dL
same,Cl,24 h,106.8 meq/L
same,DBIL,24 h,0 mg/dL
same,GLC,24 h,185.6 mg/dL
same,IP,24 h,7.1 mg/dL
same,K,24 h,4.1 meq/L
same,LDH,24 h,212.8 IU/L
same,Na,24 h,142 meq/L
same,PL,24 h,158.8 mg/dL
same,RALB,24 h,3.2 g/dL
same,TBIL,24 h,0.012 mg/dL
same,TC,24 h,81.8 mg/dL
same,TG,24 h,122 mg/dL
same,TP,24 h,5.7 g/dL
same,gamma-GTP,24 h,1 IU/L
